How the values were obtained:
[1] = system: corn immature embryos; assay: Callus induction and cell proliferation from corn immature embryos on medium with NO modulators; format: cell-based; details: 0.01 mM SNAP, compared to other treatments and controls
Method: This example describes the use of nitric oxide modulators in Agrobacterium-mediated transformation of corn. Corn callus and embryos, with and without previous inoculation in Agrobacterium, were cultured on medium containing NO donors (0.1 mM SNP and 0.01 mM SNAP), a NO-synthase inhibitor (1 mM L-NMMA), and the enantiomer of the inhibitor as negative control (1 mM D-NMMA, which has no effect on NO-synthase). All chemicals were obtained from EMD Biosciences, Inc. (La Jolla, Calif.). Callus and embryos, with and without previous inoculation in Agrobacterium, cultured on MSW57 (Table 1) were used as additional controls. The increase in the percentage of explants expressing GFP recorded on media with NO donors from Day 3 to Day 6 might be due to compound degradation. […] Limiting nitric oxide (NO) production in immature embryos and callus could increase transient GFP expression.

[2] = system: corn immature embryos; assay: Follow-up callus induction experiment, embryos on liquid MSW57 medium with L-NMMA or SNAP; format: cell-based; details: MSW57 plus 0.1 mM SNAP, 14-d in culture
Method: To follow up on this callus induction observation, a new experiment was set up where a typical embryo harvest was done from several ears and the embryos were distributed onto control medium MSW57, MSW57 plus 1.0 mM L-NMMA or 0.1 mM S-nitroso-N-acetylpenicillamine (SNAP, a NO donor compound). In this experiment the embryos were placed on a dark Millipore filter set on top of two pieces of felt.

Q: What does the source list for CC(=O)N[C@H](C(=O)O)C(C)(C)SN=O (racemic) [SNAP, S-nitroso-N-acetylpenicillamine]?
A: cell proliferation of embryo-derived callus [1]: significantly higher; embryos with callus induction versus control [2]: more embryos with callus induction than the control
